Source: patent US9161935B2 (TEVA PHARMACEUTICAL INDUSTRIES, LTD., priority 2012, dated 2015)

Test system: Moderate to severe Crohn's disease (CD) subjects
Experiment: Phase IIa trial CD-LAQ-201: safety/tolerability (adverse events)
Format: in vivo, human
Text: Safety/Tolerability • 1. Adverse events (AEs). • 2. Clinical laboratory values. • 3. Vital signs. • 4. ECG. • 5. Proportion of subjects who prematurely discontinue treatment. • 6. Proportion of subjects who prematurely discontinue treatment due to AEs. • 7. Time to premature treatment discontinuation. • 8. Time to premature treatment discontinuation due to AEs.

**Q.** Which results are given for `CCN(C(=O)c1c(O)c2c(Cl)cccc2n(C)c1=O)c1ccccc1` [laquinimod]?
**A.** dose response relationship for the overall incidence of AEs (0.5-2.0 mg/day): no apparent dose response relationship; Common Adverse Events: Abdominal Distension (Laq 0.5 mg (N = 29)): 10.3%; Common Adverse Events: Abdominal Pain (Laq 0.5 mg (N = 29)): 17.2%; Common Adverse Events: Abdominal Pain Upper (Laq 0.5 mg (N = 29)): 3.4%; Common Adverse Events: Alanine Aminotransferase Increased (Laq 0.5 mg (N = 29)): 0%; Common Adverse Events: Asthenia (Laq 0.5 mg (N = 29)): 3.4%; Common Adverse Events: Back Pain (Laq 0.5 mg (N = 29)): 10.3%; Common Adverse Events: Cough (Laq 0.5 mg (N = 29)): 6.9%; Common Adverse Events: Crohn's Disease^a (Laq 0.5 mg (N = 29)): 6.9%; Common Adverse Events: Diarrhoea (Laq 0.5 mg (N = 29)): 20.7%; Common Adverse Events: Dizziness (Laq 0.5 mg (N = 29)): 3.4%; Common Adverse Events: Fatigue (Laq 0.5 mg (N = 29)): 6.9%; Common Adverse Events: Headache (Laq 0.5 mg (N = 29)): 24.1%; Common Adverse Events: Myalgia (Laq 0.5 mg (N = 29)): 0%; Common Adverse Events: Nausea (Laq 0.5 mg (N = 29)): 3.4%; Common Adverse Events: Pyrexia (Laq 0.5 mg (N = 29)): 24.1%; Common Adverse Events: Rectal Haemorrhage (Laq 0.5 mg (N = 29)): 0%; Common Adverse Events: Tachycardia (Laq 0.5 mg (N = 29)): 0%; Common Adverse Events: Vomiting (Laq 0.5 mg (N = 29)): 17.2%; Common Adverse Events: Abdominal Distension (Laq 1.0 mg (N = 30)): 0%; Common Adverse Events: Abdominal Pain (Laq 1.0 mg (N = 30)): 13.3%; Common Adverse Events: Abdominal Pain Upper (Laq 1.0 mg (N = 30)): 0%; Common Adverse Events: Alanine Aminotransferase Increased (Laq 1.0 mg (N = 30)): 10%; Common Adverse Events: Asthenia (Laq 1.0 mg (N = 30)): 6.7%; Common Adverse Events: Back Pain (Laq 1.0 mg (N = 30)): 10%; Common Adverse Events: Cough (Laq 1.0 mg (N = 30)): 10%; Common Adverse Events: Crohn's Disease^a (Laq 1.0 mg (N = 30)): 16.7%; Common Adverse Events: Diarrhoea (Laq 1.0 mg (N = 30)): 3.3%; Common Adverse Events: Dizziness (Laq 1.0 mg (N = 30)): 3.3%; Common Adverse Events: Fatigue (Laq 1.0 mg (N = 30)): 0%; Common Adverse Events: Headache (Laq 1.0 mg (N = 30)): 26.7%; Common Adverse Events: Myalgia (Laq 1.0 mg (N = 30)): 3.3%; Common Adverse Events: Nausea (Laq 1.0 mg (N = 30)): 20%; Common Adverse Events: Pyrexia (Laq 1.0 mg (N = 30)): 3.3%; Common Adverse Events: Rectal Haemorrhage (Laq 1.0 mg (N = 30)): 3.3%; Common Adverse Events: Tachycardia (Laq 1.0 mg (N = 30)): 0%; Common Adverse Events: Vomiting (Laq 1.0 mg (N = 30)): 20%; Common Adverse Events: Abdominal Distension (Laq 1.5 mg (N = 29)): 3.4%; Common Adverse Events: Abdominal Pain (Laq 1.5 mg (N = 29)): 24.1%; Common Adverse Events: Abdominal Pain Upper (Laq 1.5 mg (N = 29)): 6.9%; Common Adverse Events: Alanine Aminotransferase Increased (Laq 1.5 mg (N = 29)): 0%; Common Adverse Events: Asthenia (Laq 1.5 mg (N = 29)): 10.3%; Common Adverse Events: Back Pain (Laq 1.5 mg (N = 29)): 13.8%; Common Adverse Events: Cough (Laq 1.5 mg (N = 29)): 6.9%; Common Adverse Events: Crohn's Disease^a (Laq 1.5 mg (N = 29)): 17.2%; Common Adverse Events: Diarrhoea (Laq 1.5 mg (N = 29)): 0%; Common Adverse Events: Dizziness (Laq 1.5 mg (N = 29)): 10.3%; Common Adverse Events: Fatigue (Laq 1.5 mg (N = 29)): 10.3%; Common Adverse Events: Headache (Laq 1.5 mg (N = 29)): 24.1%; Common Adverse Events: Myalgia (Laq 1.5 mg (N = 29)): 0%; Common Adverse Events: Nausea (Laq 1.5 mg (N = 29)): 6.9%; Common Adverse Events: Pyrexia (Laq 1.5 mg (N = 29)): 20.7%; Common Adverse Events: Rectal Haemorrhage (Laq 1.5 mg (N = 29)): 10.3%; Common Adverse Events: Tachycardia (Laq 1.5 mg (N = 29)): 10.3%; Common Adverse Events: Vomiting (Laq 1.5 mg (N = 29)): 3.4%; Common Adverse Events: Abdominal Distension (Laq 2.0 mg (N = 29)): 3.4%; Common Adverse Events: Abdominal Pain (Laq 2.0 mg (N = 29)): 24.1%; Common Adverse Events: Abdominal Pain Upper (Laq 2.0 mg (N = 29)): 17.2%; Common Adverse Events: Alanine Aminotransferase Increased (Laq 2.0 mg (N = 29)): 3.4%; Common Adverse Events: Asthenia (Laq 2.0 mg (N = 29)): 6.9%; Common Adverse Events: Back Pain (Laq 2.0 mg (N = 29)): 3.4%; Common Adverse Events: Cough (Laq 2.0 mg (N = 29)): 3.4%; Common Adverse Events: Crohn's Disease^a (Laq 2.0 mg (N = 29)): 13.8%; Common Adverse Events: Diarrhoea (Laq 2.0 mg (N = 29)): 10.3%; Common Adverse Events: Dizziness (Laq 2.0 mg (N = 29)): 3.4%; Common Adverse Events: Fatigue (Laq 2.0 mg (N = 29)): 0%; Common Adverse Events: Headache (Laq 2.0 mg (N = 29)): 44.8%; Common Adverse Events: Myalgia (Laq 2.0 mg (N = 29)): 17.2%; Common Adverse Events: Nausea (Laq 2.0 mg (N = 29)): 20.7%; Common Adverse Events: Pyrexia (Laq 2.0 mg (N = 29)): 13.8%; Common Adverse Events: Rectal Haemorrhage (Laq 2.0 mg (N = 29)): 0%; Common Adverse Events: Tachycardia (Laq 2.0 mg (N = 29)): 3.4%; Common Adverse Events: Vomiting (Laq 2.0 mg (N = 29)): 20.7%; tolerability (active Crohns disease): well tolerated; change from Baseline in biochemical or hematological parameters (any of the dose groups): no consistent trends in change from Baseline; deaths during the study (in vivo): No subject died; severity of most AEs (in vivo): mild or moderate; changes in vital signs or ECGs (laquinimod dose groups): no clinically significant changes; most common SAE: CD (exacerbation), % of patients (laquinimod groups, pooled placebo 1.6%): 3.4-6.9%; overall incidence of AEs (laquinimod groups, pooled placebo 82.5%): 86.2-96.7%
